Data taken from PubChem BioAssay AID1963843 (Molecular Pharmacology Branch, DTP, NCI, 2024).

Tested on: 616215-338-R-J1-PDC complex spheroid viability
Experiment: Anticancer human tumor 616215-338-R-J1-PDC patient-derived colon adenocarcinoma cell line growth inhibition [POLQ]
Conditions: for IC50: curve of first compound; for viability, T/C: stronger effect = lower value
In short: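 Three-cell-type spheroids modelling solid tumor plus stroma served as the readout system; POL inhibitors were tested individually and in combination, concentration ranges set by clinical Cmax where known.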

[1] = second compound 0.0316 µM, first compound 0.00316 µM
[2] = second compound 0.0316 µM, first compound 0.01 µM
[3] = second compound 0.0316 µM, first compound 0.0316 µM
[4] = second compound 0.0316 µM, first compound 0.1 µM
[5] = second compound 0.0316 µM, first compound 0.316 µM
[6] = second compound 0.0316 µM, first compound 1 µM
[7] = second compound 0.1 µM, first compound 0.00316 µM
[8] = second compound 0.1 µM, first compound 0.01 µM
[9] = second compound 0.1 µM, first compound 0.0316 µM
[10] = second compound 0.1 µM, first compound 0.1 µM
[11] = second compound 0.1 µM, first compound 0.316 µM
[12] = second compound 0.1 µM, first compound 1 µM
[13] = second compound 0.316 µM, first compound 0.00316 µM
[14] = second compound 0.316 µM, first compound 0.01 µM
[15] = second compound 0.316 µM, first compound 0.0316 µM
[16] = second compound 0.316 µM, first compound 0.1 µM
[17] = second compound 0.316 µM, first compound 0.316 µM
[18] = second compound 0.316 µM, first compound 1 µM
[19] = second compound 1 µM, first compound 0.00316 µM
[20] = second compound 1 µM, first compound 0.01 µM
[21] = second compound 1 µM, first compound 0.0316 µM
[22] = second compound 1 µM, first compound 0.1 µM
[23] = second compound 1 µM, first compound 0.316 µM
[24] = second compound 1 µM, first compound 1 µM
[25] = second compound 3.16 µM, first compound 0.00316 µM
[26] = second compound 3.16 µM, first compound 0.01 µM
[27] = second compound 3.16 µM, first compound 0.0316 µM
[28] = second compound 3.16 µM, first compound 0.1 µM
[29] = second compound 3.16 µM, first compound 0.316 µM
[30] = second compound 3.16 µM, first compound 1 µM
[31] = second compound 10 µM, first compound 0.00316 µM
[32] = second compound 10 µM, first compound 0.01 µM
[33] = second compound 10 µM, first compound 0.0316 µM
[34] = second compound 10 µM, first compound 0.1 µM
[35] = second compound 10 µM, first compound 0.316 µM
[36] = second compound 10 µM, first compound 1 µM
[37] = second compound 0.0316 µM, first compound 3.16 µM
[38] = second compound 0.0316 µM, first compound 10 µM
[39] = second compound 0.1 µM, first compound 3.16 µM
[40] = second compound 0.1 µM, first compound 10 µM
[41] = second compound 0.316 µM, first compound 3.16 µM
[42] = second compound 0.316 µM, first compound 10 µM
[43] = second compound 1 µM, first compound 3.16 µM
[44] = second compound 1 µM, first compound 10 µM
[45] = second compound 3.16 µM, first compound 3.16 µM
[46] = second compound 3.16 µM, first compound 10 µM
[47] = second compound 10 µM, first compound 3.16 µM
[48] = second compound 10 µM, first compound 10 µM
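Note: spheroids exposed to compounds for one week before readout.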
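Throughout, for viability, T/C: percent viability relative to DMSO vehicle wells taken as 100%.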

C=CCn1c(=O)c2cnc(Nc3ccc(N4CCN(C)CC4)cc3)nc2n1-c1cccc(C(C)(C)O)n1 + Cc1cccc(N(C)C(=O)C2C(O)CCN2c2nc(C)cc(C(F)(F)F)c2C#N)c1
IC50 (second compound 0.0316 µM): 0.269 µM
IC50 (second compound 0.1 µM): 0.542 µM
IC50 (second compound 0.316 µM): 0.559 µM
IC50 (second compound 1 µM): 0.428 µM
IC50 (second compound 3.16 µM): 0.333 µM
IC50 (second compound 10 µM): 0.25 µM
viability, T/C [1]: 110%
viability, T/C [2]: 87.5%
viability, T/C [3]: 108%
viability, T/C [4]: 86.7%
viability, T/C [5]: 44.5%
viability, T/C [6]: 34.3%
viability, T/C [7]: 102%
viability, T/C [8]: 97.4%
viability, T/C [9]: 85.7%
viability, T/C [10]: 93.4%
viability, T/C [11]: 65.4%
viability, T/C [12]: 31.2%
viability, T/C [13]: 97.4%
viability, T/C [14]: 107%
viability, T/C [15]: 91.7%
viability, T/C [16]: 92.4%
viability, T/C [17]: 67.8%
viability, T/C [18]: 31.3%
viability, T/C [19]: 96.8%
viability, T/C [20]: 90%
viability, T/C [21]: 92.5%
viability, T/C [22]: 76.7%
viability, T/C [23]: 58.4%
viability, T/C [24]: 27.8%
viability, T/C [25]: 98.1%
viability, T/C [26]: 91.1%
viability, T/C [27]: 93.8%
viability, T/C [28]: 90.2%
viability, T/C [29]: 50.9%
viability, T/C [30]: 30.9%
viability, T/C [31]: 109%
viability, T/C [32]: 90.1%
viability, T/C [33]: 90.2%
viability, T/C [34]: 83.8%
viability, T/C [35]: 40.9%
viability, T/C [36]: 26.9%

CC[C@@]1(O)C(=O)OCc2c1cc1n(c2=O)Cc2cc3c(CN(C)C)c(O)ccc3nc2-1 + Cc1cccc(N(C)C(=O)C2C(O)CCN2c2nc(C)cc(C(F)(F)F)c2C#N)c1
IC50 (second compound 0.0316 µM): > 0.1 µM
IC50 (second compound 0.1 µM): > 0.1 µM
IC50 (second compound 0.316 µM): > 0.1 µM
IC50 (second compound 1 µM): > 0.1 µM
IC50 (second compound 3.16 µM): > 0.1 µM
IC50 (second compound 10 µM): > 0.1 µM
viability, T/C (second compound 0.0316 µM, first compound 0.000316 µM): 96.5%
viability, T/C (second compound 0.0316 µM, first compound 0.001 µM): 100%
viability, T/C [1]: 97.7%
viability, T/C [2]: 101%
viability, T/C [3]: 105%
viability, T/C [4]: 82.5%
viability, T/C (second compound 0.1 µM, first compound 0.000316 µM): 99.2%
viability, T/C (second compound 0.1 µM, first compound 0.001 µM): 101%
viability, T/C [7]: 101%
viability, T/C [8]: 116%
viability, T/C [9]: 107%
viability, T/C [10]: 79.6%
viability, T/C (second compound 0.316 µM, first compound 0.000316 µM): 114%
viability, T/C (second compound 0.316 µM, first compound 0.001 µM): 104%
viability, T/C [13]: 92.3%
viability, T/C [14]: 114%
viability, T/C [15]: 96.7%
viability, T/C [16]: 84.3%
viability, T/C (second compound 1 µM, first compound 0.000316 µM): 101%
viability, T/C (second compound 1 µM, first compound 0.001 µM): 93.5%
viability, T/C [19]: 112%
viability, T/C [20]: 112%
viability, T/C [21]: 103%
viability, T/C [22]: 77.2%
viability, T/C (second compound 3.16 µM, first compound 0.000316 µM): 101%
viability, T/C (second compound 3.16 µM, first compound 0.001 µM): 94.2%
viability, T/C [25]: 93.2%
viability, T/C [26]: 101%
viability, T/C [27]: 103%
viability, T/C [28]: 78.8%
viability, T/C (second compound 10 µM, first compound 0.000316 µM): 100%
viability, T/C (second compound 10 µM, first compound 0.001 µM): 98.9%
viability, T/C [31]: 95.3%
viability, T/C [32]: 103%
viability, T/C [33]: 97.8%
viability, T/C [34]: 64.4%

Nc1ccn(C2OC(CO)C(O)C2(F)F)c(=O)n1 (stereo not drawn) + Cc1cccc(N(C)C(=O)C2C(O)CCN2c2nc(C)cc(C(F)(F)F)c2C#N)c1
IC50 (second compound 0.0316 µM): 0.0423 µM
IC50 (second compound 0.1 µM): 0.0536 µM
IC50 (second compound 0.316 µM): 0.058 µM
IC50 (second compound 1 µM): 0.0498 µM
IC50 (second compound 3.16 µM): 0.0575 µM
IC50 (second compound 10 µM): 0.0593 µM
viability, T/C [3]: 55.2%
viability, T/C [4]: 36.6%
viability, T/C [5]: 22.8%
viability, T/C [6]: 30.8%
viability, T/C [37]: 29.6%
viability, T/C [38]: 27%
viability, T/C [9]: 62.2%
viability, T/C [10]: 37.8%
viability, T/C [11]: 23.4%
viability, T/C [12]: 28.1%
viability, T/C [39]: 40.2%
viability, T/C [40]: 28.8%
viability, T/C [15]: 66.7%
viability, T/C [16]: 36.1%
viability, T/C [17]: 26%
viability, T/C [18]: 25.7%
viability, T/C [41]: 34.4%
viability, T/C [42]: 28.9%
viability, T/C [21]: 61.9%
viability, T/C [22]: 32.2%
viability, T/C [23]: 25.4%
viability, T/C [24]: 28.8%
viability, T/C [43]: 26.7%
viability, T/C [44]: 27.1%
viability, T/C [27]: 62.5%
viability, T/C [28]: 40.4%
viability, T/C [29]: 25.5%
viability, T/C [30]: 29.4%
viability, T/C [45]: 28.2%
viability, T/C [46]: 26.8%
viability, T/C [33]: 63.9%
viability, T/C [34]: 40.5%
viability, T/C [35]: 26%
viability, T/C [36]: 27.1%
viability, T/C [47]: 30.1%
viability, T/C [48]: 26.2%

O=C(c1cc(Cc2n[nH]c(=O)c3ccccc23)ccc1F)N1CCN(C(=O)C2CC2)CC1 + Cc1cccc(N(C)C(=O)C2C(O)CCN2c2nc(C)cc(C(F)(F)F)c2C#N)c1
IC50 (second compound 0.0316 µM): > 10 µM
IC50 (second compound 0.1 µM): > 10 µM
IC50 (second compound 0.316 µM): > 10 µM
IC50 (second compound 1 µM): > 10 µM
IC50 (second compound 3.16 µM): > 10 µM
IC50 (second compound 10 µM): > 10 µM
viability, T/C [3]: 105%
viability, T/C [4]: 93.8%
viability, T/C [5]: 102%
viability, T/C [6]: 98.4%
viability, T/C [37]: 103%
viability, T/C [38]: 87.8%
viability, T/C [9]: 103%
viability, T/C [10]: 98.4%
viability, T/C [11]: 107%
viability, T/C [12]: 107%
viability, T/C [39]: 99.9%
viability, T/C [40]: 94.3%
viability, T/C [15]: 95.3%
viability, T/C [16]: 102%
viability, T/C [17]: 108%
viability, T/C [18]: 98.9%
viability, T/C [41]: 108%
viability, T/C [42]: 89.2%
viability, T/C [21]: 111%
viability, T/C [22]: 106%
viability, T/C [23]: 105%
viability, T/C [24]: 101%
viability, T/C [43]: 102%
viability, T/C [44]: 78%
viability, T/C [27]: 103%
viability, T/C [28]: 102%
viability, T/C [29]: 95.6%
viability, T/C [30]: 103%
viability, T/C [45]: 97.3%
viability, T/C [46]: 88.4%
viability, T/C [33]: 113%
viability, T/C [34]: 101%
viability, T/C [35]: 100%
viability, T/C [36]: 104%
viability, T/C [47]: 110%
viability, T/C [48]: 86.6%
